Data taken from patent US20050013869A1, “Sustained release formulation for carbamates and a method therefor” (priority 2003, published 2005).

Key:
[1] = in vitro medium, 37° C., cited from earlier work
[2] = K. Walter et al. (1995); cited from earlier work
[3] = In vivo pharmacokinetic study after oral (intragastric) administration in rats; conditions: rat, oral solution, 1 mg/kg
Description: Naked physostigmine solution (1 mg/kg) or physostigmine-loaded RG 502 microparticles suspension (10% drug loading) were fed intragastrically into the overnight-fasted rats (weight-280g) via a rigid dosing gavage needle into the posterior of the rat pharynx, directly into the stomach. Immediately before administration of the tablets and solutions, a 300 μL sample of blood was taken at what was t=0 hrs (pre-dose), through the exposed catheter. Subsequent samples were drawn from the catheter at intervals over a period of 48 hours after drug administration. After each withdrawal, an equal volume of 0.9% normal saline was injected back into the blood stream to minimize loss of body fluid. Water and food were available ad libitum in the metabolic cages. Each 300 μl volume of blood was collected in heparinised microcentrifuge tubes and centrifuged under 3000 g for 5 minutes at 4° C. to obtain the plasma. All plasma samples were stored at −70° C. in fresh heparinised microcentrifuge tubes. Physostigmine is extracted immediately from it prior to analysis by high performance liquid chromatography (HPLC) described by Zhao et al (2003) Journal of Chromatography B 784- 323-329). The WinNonlin® Version 3.2 (Pharsight Corporation, USA) was used to calculate the pharmacokinetic parameters based on the non-compartment model.

CNC(=O)Oc1ccc2c(c1)[C@]1(C)CCN(C)[C@@H]1N2C [physostigmine, Physostigmine]
physostigmine degraded ([1]; in 6 days): about 40%
physostigmine degradation rate [1]: 7 % per day
elimination half-life [2]: 12 to 40 min
Tmax ([3]; plasma): 40.8 min
AUC ([3]; plasma, read-out: AUC (hr*μg/mL), Mean): 0.77 µg·h/mL
Cmax ([3]; plasma, read-out: Cmax (μg/mL), Mean): 0.57 µg/mL
half-life ([3]; plasma, read-out: Half life (hr), Mean (converted)): 1.16 h
Cl (mL/hr/kg), Mean [3]: 998.86 mL/h/kg
Vd (mL/kg), Mean [3]: 1584.37 mL/kg
